{"source": "patent US20200347043A1", "about": "“MODULATORS OF THE INTEGRATED STRESS PATHWAY” (Calico Life Sciences LLC, priority 2019, published 2020)", "data": [{"system": "HEK293T cells carrying the ATF4 luciferase reporter", "test": "ATF4-Luc assay (in vitro model of VWMD)", "type": "cell-based, human", "settings": "Homo sapiens, HEK-293T, 1 μg/mL tunicamycin, 7 hours, One Glo luminescence", "procedure": "In order to test exemplary compounds of the invention in a cellular context, a stable VWMD cell line was first constructed. The ATF4 reporter was prepared by fusing the human full-length ATF4 5′-UTR (NCBI Accession No. BC022088.2) in front of the firefly luciferase (FLuc) coding sequence lacking the initiator methionine as described in Sidrauski et al (eLife 2013). The construct was used to produce recombinant retroviruses using standard methods and the resulting viral supernatant was used to transduce HEK293T cells, which were then subsequently selected with puromycin to generate a stable cell line.\nHEK293T cells carrying the ATF4 luciferase reporter were plated on polylysine coated 384-well plates (Greiner Bio-one) at 30,000 cells per well. Cells were treated the next day with 1 μg/mL tunicamycin and 200 nM of a compound of Formula (I) for 7 hours. Luminescence was measured using One Glo (Promega) as specified by the manufacturer. Cells were maintained in DMEM with L-glutamine supplemented with 10% heat-inactivated FBS (Gibco) and Antibiotic-Antimycotic solution (Gibco).\nTable 4 below summarizes the EC50 data obtained using the ATF4-Luc assay for exemplary compounds of the invention.", "units": {"EC50": "nM"}, "values": [{"compound": "O=C(N[C@@H]1C[C@@H]2O[C@H]1C[C@H]2c1nnc([C@H]2C[C@@H](OC(F)(F)F)C2)o1)[C@H]1C[C@@H](O)c2cc(Cl)ccc2O1", "note": "(mixture of isomers) [Compound 187]", "EC50": "50 to 250"}, {"compound": "O=C(N[C@H]1C[C@@H](OC(F)(F)F)C1)[C@H]1C[C@H]2O[C@@H]1C[C@@H]2NC(=O)[C@H]1C[C@@H](O)c2cc(Cl)ccc2O1", "note": "(mixture of isomers) [Compound 219, (2R,4R)-6-chloro-4-hydroxy-N-[(1RS,2SR,4RS,5SR)-5-{[cis-3-(trifluoromethoxy)cyclobutyl]carbamoyl}-7-oxabicyclo[2.2.1]heptan-2-yl]-3,4-dihydro-2H-1-benzopyran-2-carboxamide]", "EC50": "500 to 2000"}, {"compound": "O=C1C[C@H](C(=O)NC23CC(NC(=O)[C@@H]4C[C@@H]4COC(F)(F)F)(C2)C3)Oc2ccc(Cl)cc21", "note": "(mixture of isomers) [Compound 296, (2R)-6-chloro-4-oxo-N-[3-({(1RS,2SR)-2-[(trifluoromethoxy)methyl]cyclopropane-1-carbonyl}amino)bicyclo[1.1.1]pentan-1-yl]-3,4-dihydro-2H-1-benzopyran-2-carboxamide]", "EC50": "500 to 2000"}, {"compound": "O=C(NC12CC(NC(=O)[C@@H]3C[C@@H]3COC(F)(F)F)(C1)C2)[C@H]1C[C@@H](O)c2cc(Cl)ccc2O1", "note": "(mixture of isomers) [Compound 299, (2R,4R)-6-chloro-4-hydroxy-N-[3-({(1RS,2SR)-2-[(trifluoromethoxy)methyl]cyclopropane-1-carbonyl}amino)bicyclo[1.1.1]pentan-1-yl]-3,4-dihydro-2H-1-benzopyran-2-carboxamide]", "EC50": "500 to 2000"}, {"compound": "O=C(NCc1ccc(C(F)(F)F)cn1)[C@H]1C[C@H]2O[C@@H]1C[C@@H]2NC(=O)[C@H]1C[C@@H](O)c2cc(Cl)ccc2O1", "note": "(mixture of isomers) [Compound 313, (2R,4R)-6-chloro-4-hydroxy-N-[(1RS,2SR,4RS,5SR)-5-({[5-(trifluoromethyl)pyridin-2-yl]methyl}carbamoyl)-7-oxabicyclo[2.2.1]heptan-2-yl]-3,4-dihydro-2H-1-benzopyran-2-carboxamide]", "EC50": "250 to 500"}, {"compound": "O=C(COc1ccc(Cl)c(F)c1)NC12CC(C(=O)NC[C@H]3C[C@@H](O)c4cc(Cl)ccc4O3)(C1)C2", "note": "(racemic) [Compound 104, 3-[2-(4-chloro-3-fluorophenoxy)acetamido]-N-{[rac-(2R,4R)-6-chloro-4-hydroxy-3,4-dihydro-2H-1-benzopyran-2-yl]methyl}bicyclo[1.1.1]pentane-1-carboxamide]", "EC50": "10 to 50"}, {"compound": "O=C(CO[C@H]1C[C@@H](OC(F)(F)F)C1)NC12CC(NC(=O)[C@H]3C[C@@H](O)c4cc(Cl)ccc4O3)(C1)C2", "note": "(racemic) [Compound 114, rac-(2R,4R)-6-chloro-4-hydroxy-N-[3-(2-{[(1s,3s)-3-(trifluoromethoxy)cyclobutyl]oxy}acetamido)bicyclo[1.1.1]pentan-1-yl]-3,4-dihydro-2H-1-benzopyran-2-carboxamide]", "EC50": "< 10"}, {"compound": "O=C(NCc1ccc(C(F)(F)F)cc1)[C@@H]1CC[C@@H](NC(=O)[C@H]2C[C@@H](O)c3cc(Cl)ccc3O2)CO1", "note": "(racemic) [Compound 121, (2R,4R)-6-chloro-4-hydroxy-N-[(3R,6S)-6-({[4-(trifluoromethyl)phenyl]methyl}carbamoyl)oxan-3-yl]-3,4-dihydro-2H-1-benzopyran-2-carboxamide and (2S,4S)-6-chloro-4-hydroxy-N-[(3R,6S)-6-({[4-(trifluoromethyl)phenyl]methyl}carbamoyl)oxan-3-yl]-3,4-dihydro-2H-1-benzopyran-2-carboxamide]", "EC50": "10 to 50"}, {"compound": "O=C(N[C@@H]1CC[C@@H](C(=O)N2CC(Oc3ccc(Cl)cc3)C2)OC1)[C@H]1C[C@@H](O)c2cc(Cl)ccc2O1", "note": "(racemic) [Compound 122, (2R,4R)-6-chloro-N-(3R,6S)-6-[3-(4-chlorophenoxy)azetidine-1-carbonyl]oxan-3-yl)-4-hydroxy-3,4-dihydro-2H-1-benzopyran-2-carboxamide and (2S,4S)-6-chloro-N-{(3R,6S)-6-[3-(4-chlorophenoxy)azetidine-1-carbonyl]oxan-3-yl}-4-hydroxy-3,4-dihydro-2H-1-benzopyran-2-carboxamide]", "EC50": "10 to 50"}, {"compound": "O=C(NC12CC(C(=O)NCc3ccc(C(F)(F)F)cn3)(C1)C2)[C@H]1C[C@@H](O)c2cc(Cl)ccc2O1", "note": "(racemic) [Compound 123, rac-(2R,4R)-6-chloro-4-hydroxy-N-[3-(([5-(trifluoromethyl)pyridin-2-yl]methyl)carbamoyl)bicyclo[1.1.1]pentan-1-yl]-3,4-dihydro-2H-1-benzopyran-2-carboxamide]", "EC50": "50 to 250"}, {"compound": "O=C(N[C@H]1CC[C@H](C(=O)NCc2nc3ccc(Cl)cc3[nH]2)CC1)[C@H]1C[C@@H](O)c2cc(Cl)ccc2O1", "note": "(racemic) [Compound 126, rac-(2R,4R)-6-chloro-N-[(1r,4R)-4-{[(6-chloro-1H-benzimidazol-2-yl)methyl]carbamoyl}cyclohexyl]-4-hydroxy-3,4-dihydro-2H-1-benzopyran-2-carboxamide]", "EC50": "10 to 50"}, {"compound": "O=C(NCc1cn2ccc(Cl)cc2n1)[C@@H]1CC[C@@H](NC(=O)[C@@H]2C[C@H](O)c3cc(Cl)ccc3O2)CO1", "note": "(racemic) [Compound 131, (2S,4S)-6-chloro-N-[(3R,6S)-6-{[(7-chloroimidazo[1,2-a]pyridin-2-yl)methyl]carbamoyl}oxan-3-yl]-4-hydroxy-3,4-dihydro-2H-1-benzopyran-2-carboxamide and (2R,4R)-6-chloro-N-[(3R,6S)-6-{[(7-chloroimidazo[1,2-a]pyridin-2-yl)methyl]carbamoyl}oxan-3-yl]-4-hydroxy-3,4-dihydro-2H-1-benzopyran-2-carboxamide]", "EC50": "50 to 250"}, {"compound": "O=C(N[C@H]1CC[C@H](N2CCN(c3cnc(C(F)F)cn3)C2=O)CC1)[C@H]1C[C@@H](O)c2cc(Cl)ccc2O1", "note": "(racemic) [Compound 136, rac-(2R,4R)-6-chloro-N-[(1r,4R)-4-{3-[5-(difluoromethyl)pyrazin-2-yl]-2-oxoimidazolidin-1-yl}cyclohexyl]-4-hydroxy-3,4-dihydro-2H-1-benzopyran-2-carboxamide]", "EC50": "50 to 250"}, {"compound": "O=C(COc1ccc(Cl)c(F)c1)NC1CC2(C1)CN(C(=O)[C@@H]1C[C@H](O)c3cc(Cl)ccc3O1)C2", "note": "(racemic) [Compound 145, 2-(4-chloro-3-fluorophenoxy)-N-{2-[rac-(2R,4R)-6-chloro-4-hydroxy-3,4-dihydro-2H-1-benzopyran-2-carbonyl]-2-azaspiro[3.3]heptan-6-yl}acetamide]", "EC50": "50 to 250"}, {"compound": "O=C(NC12CCC(NC(=O)[C@H]3C[C@@H](OC(F)(F)F)C3)(CC1)[C@@H](O)C2)[C@@H]1C[C@H](O)c2cc(Cl)ccc2O1", "note": "(racemic) [Compound 147, (2S,4S)-6-chloro-4-hydroxy-N-[(3S)-3-hydroxy-4-{[(1s,3R)-3-(trifluoromethoxy)cyclobutane-1-carbonyl]amino}bicyclo[2.2.2]octan-1-yl]-3,4-dihydro-2H-1-benzopyran-2-carboxamide and (2R,4R)-6-chloro-4-hydroxy-N-[(3S)-3-hydroxy-4-{[(1s,3R)-3-(trifluoromethoxy)cyclobutane-1-carbonyl]amino}bicyclo[2.2.2]octan-1-yl]-3,4-dihydro-2H-1-benzopyran-2-carboxamide]", "EC50": "250 to 500"}, {"compound": "O=C(NC12CC(n3cnc(-c4ccc(F)c(F)c4)c3)(C1)C2)[C@H]1C[C@@H](O)c2cc(Cl)ccc2O1", "note": "(racemic) [Compound 149, rac-(2R,4R)-6-chloro-N-{3-[4-(3,4-difluorophenyl)-1H-imidazo-1-yl]bicyclo[1.1.1]pentan-1-yl}-4-hydroxy-3,4-dihydro-2H-1-benzopyran-2-carboxamide]", "EC50": "< 10"}, {"compound": "O=C(NC12CC(c3nnc([C@H]4C[C@@H](OC(F)(F)F)C4)o3)(C1)C2)[C@H]1C[C@@H](O)c2cc(Cl)ccc2O1", "note": "(racemic) [Compound 159, rac-(2R,4R)-6-chloro-4-hydroxy-N-(3-{5-[(1s,3S)-3-(trifluoromethoxy)cyclobutyl]-1,3,4-oxadiazol-2-yl}bicyclo[1.1.1]pentan-1-yl)-3,4-dihydro-2H-1-benzopyran-2-carboxamide]", "EC50": "10 to 50"}, {"compound": "O=C(NC12CCC(c3nnc([C@H]4C[C@@H](OC(F)(F)F)C4)o3)(C1)C2)[C@H]1C[C@@H](O)c2cc(Cl)ccc2O1", "note": "(racemic) [Compound 160, rac-(2R,4R)-6-chloro-4-hydroxy-N-(4-{5-[(1s,3S)-3-(trifluoromethoxy)cyclobutyl]-1,3,4-oxadiazol-2-yl}bicyclo[2.1.1]hexan-1-yl)-3,4-dihydro-2H-1-benzopyran-2-carboxamide]", "EC50": "50 to 250"}, {"compound": "O=C(N[C@@H]1CC[C@@H](c2nnc([C@H]3C[C@@H](OC(F)(F)F)C3)o2)OC1)C1CC(O)c2cc(Cl)ccc2O1", "note": "(mixture of isomers) [Compound 161, (2RS,4RS)-6-chloro-4-hydroxy-N-[(3R,6)-6-{5-[cis-3-(trifluoromethoxy)cyclobutyl]-1,3,4-oxadiazol-2-yl}oxan-3-yl]-3,4-dihydro-2H-1-benzopyran-2-carboxamide]", "EC50": "< 10"}, {"compound": "O=C(COc1ccc(Cl)c(F)c1)NC12CC(c3nnc([C@H]4C[C@@H](O)c5cc(Cl)ccc5O4)o3)(C1)C2", "note": "(racemic) [Compound 166, 2-(4-chloro-3-fluorophenoxy)-N-(3-{5-[rac-(2R,4R)-6-chloro-4-hydroxy-3,4-dihydro-2H-1-benzopyran-2-yl]-1,3,4-oxadiazol-2-yl}bicyclo[1.1.1]pentan-1-yl)acetamide]", "EC50": "< 10"}]}]}
